Data on 24 compounds can be found in ChEMBL document CHEMBL5233210, “Pyrazolone structural motif in medicinal chemistry: Retrospect and prospect” (Eur J Med Chem, 2020).

Values after ≈ are worked out from the molar mass of the structure shown.

In general, IC50 refers to the midpoint of a concentration-inhibition curve. By MIC is commonly meant the least concentration at which growth counts as inhibited. For orientation: ED50 means the dose at which the effect has come halfway, by size or by number of responders.

Assay [1] concerns Escherichia coli. As to the kind of experiment: Antibacterial activity against Escherichia coli assessed as diameter of inhibition zone at 100 ppm. Format: functional. The settings on record: read-out: DIZ.
In assay [2] the test system is Bacillus subtilis. As to the kind of experiment: Antibacterial activity against Bacillus subtilis assessed as diameter of inhibition zone at 100 ppm. Format: functional. The settings on record: read-out: DIZ.
Assay [3] concerns Rattus norvegicus. As to the kind of experiment: Antiinflammatory activity against rat assessed as inhibition of carrageenan-induced paw edema relative to control. Format: functional. More on the design: concentration or dose not given beside the values. In general terms: Carrageenan injected into the paw causes an acute inflammation.
The species named for a further assay is Ovis aries. As to the kind of experiment: Selectivity index, ratio of IC50 for ovine COX-1 to IC50 for ovine COX-2.
Assay [4] in a line: Antioxidant activity assessed as DPPH radical scavenging activity. It is filed as functional.
The subject of a further assay is Staphylococcus aureus. As to the kind of experiment: Antibacterial activity against Staphylococcus aureus. Format: functional.
For assay [5], the system named is Bacillus subtilis. As to the kind of experiment: Antibacterial activity against Bacillus subtilis. Format: functional.
In the next assay the test system is Streptococcus pyogenes. As to the kind of experiment: Antibacterial activity against Streptococcus pyogenes. It is filed as functional.
For another assay, the system named is Pseudomonas aeruginosa. As to the kind of experiment: Antibacterial activity against Pseudomonas aeruginosa. Format: functional.
The subject of assay [6] is Escherichia coli. As to the kind of experiment: Antibacterial activity against Escherichia coli. It is filed as functional.
A further assay deals with Candida albicans. As to the kind of experiment: Antifungal activity against Candida albicans. Format: functional.
The subject of another assay is Aspergillus niger. As to the kind of experiment: Antifungal activity against Aspergillus niger. Format: functional.
Another assay deals with MCF7. As to the kind of experiment: Cytotoxicity against human MCF7 cells. It is filed as functional, cell-based.
Assay [7] deals with Rattus norvegicus. As to the kind of experiment: Antiinflammatory activity against rat assessed as inhibition of carrageenan-induced paw edema. It is filed as functional.
Assay [8] addresses T1, Prostaglandin G/H synthase 1 (Ovis aries, UniProt P05979).
T1 sequence (P05979 whole entry): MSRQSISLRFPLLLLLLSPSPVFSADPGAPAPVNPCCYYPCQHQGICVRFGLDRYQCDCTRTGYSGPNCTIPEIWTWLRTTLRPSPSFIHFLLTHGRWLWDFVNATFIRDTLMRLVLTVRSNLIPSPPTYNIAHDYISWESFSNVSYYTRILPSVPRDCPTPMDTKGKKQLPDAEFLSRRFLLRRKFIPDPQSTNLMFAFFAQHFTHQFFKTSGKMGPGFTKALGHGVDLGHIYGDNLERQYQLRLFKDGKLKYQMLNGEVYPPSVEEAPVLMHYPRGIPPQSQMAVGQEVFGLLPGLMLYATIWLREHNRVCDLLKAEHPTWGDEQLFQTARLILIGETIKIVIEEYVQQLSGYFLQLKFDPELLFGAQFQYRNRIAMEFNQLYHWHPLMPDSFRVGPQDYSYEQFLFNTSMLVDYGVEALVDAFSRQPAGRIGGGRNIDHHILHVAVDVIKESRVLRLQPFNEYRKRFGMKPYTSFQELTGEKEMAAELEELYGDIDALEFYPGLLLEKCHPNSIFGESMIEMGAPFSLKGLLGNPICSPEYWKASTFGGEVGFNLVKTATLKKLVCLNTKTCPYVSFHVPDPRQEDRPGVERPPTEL
As to the kind of experiment: Inhibition of ovine COX-1.

Assay [9] has as its system Ehrlich. As to the kind of experiment: Cytotoxicity against mouse Ehrlich ascites cells assessed as dead cells at 100 ug/ml. It is filed as functional. The settings on record: dose 100 µg/ml.
Assay [10] relates to Ehrlich. As to the kind of experiment: Cytotoxicity against mouse Ehrlich ascites cells assessed as dead cells at 500 ug/ml. The settings on record: dose 500 µg/ml. It is filed as functional.
The test system of assay [11] is Ehrlich. As to the kind of experiment: Cytotoxicity against mouse Ehrlich ascites cells assessed as dead cells at 25 ug/ml. The settings on record: dose 25 µg/ml. Format: functional.
Assay [12] can be described thus: Antioxidant activity assessed as ABTS radical scavenging activity. It is filed as functional.

Turning to `CCOC(=O)C1CCN(/C(Nc2ccccc2)=C2\C(=O)N(c3ccccc3)N=C2C)CC1`, the zone of inhibition at 100 µg/mL with Escherichia coli [1] was 40 mm; in the assay with Bacillus subtilis [2], 36 mm.
As for `O=C1CC(Nc2ccccc2NC(=S)NC2CCCCC2)=NN1`, in the assay on Rattus norvegicus [3], the Activity came to 56%. Besides, the Ratio IC50 in the assay filed under Ovis aries came to 4.73.
As to `Cc1c(/N=C/c2ccccc2)c(=O)n(-c2ccccc2)n1C`, the IC50 in assay [4] is 31.3 µM.
Regarding `CCCC1=NN(c2c(F)c(F)cc(F)c2F)C(=O)/C1=C\c1cn(-c2ccccc2)nc1-c1cccs1`, the minimum inhibitory concentration (MIC) is 125 µg/mL (≈ 245 µM) in the assay with Staphylococcus aureus; 125 µg/mL (≈ 245 µM) with Bacillus subtilis [5]; 62.5 µg/mL (≈ 122 µM) in the assay with Streptococcus pyogenes; 250 µg/mL (≈ 490 µM) with Pseudomonas aeruginosa; 200 µg/mL (≈ 392 µM) against Escherichia coli [6]; greater than 1000 µg/mL against Candida albicans. The same compound returned a minimum inhibitory concentration (MIC) against Aspergillus niger greater than 1000 µg/mL.
On to `Cc1c(-n2cc(C#N)c(=O)n(-c3ccc(Br)cc3)c2=S)c(=O)n(-c2ccccc2)n1C`, for which the IC50 in the assay on MCF7 was found to be 43.4 µM.
With `CCCOC(=O)c1cc(O)c(O)c(O)c1` [PROPYL GALLATE], the IC50 in [4] was 30.3 µM.
As to `NS(=O)(=O)c1ccc(N/N=C2/C=NN(c3ccc(C(=O)O)cc3)C2=O)cc1`, the Activity with Rattus norvegicus [3] is reported as 72.72%. For the same compound, the median effective dose (ED50) in the assay on Rattus norvegicus [7] amounted to 79 µmol/kg.
Turning to `Cc1[nH]n(-c2ccccc2)c(=O)c1CNc1ccc(S(N)(=O)=O)cc1`, the Activity with Rattus norvegicus [3] worked out at 92%. Besides, in assay [8], the IC50 is greater than 100 µM. For the same compound, the Ratio IC50 in the assay listed under Ovis aries was greater than 100. Further, the median effective dose (ED50) with Rattus norvegicus [7] was 109 mg/kg.
On to `CCOC(=O)c1c(N/N=C2/C(=O)NN=C2N)sc2c1CCCC2`, for which the results for the Activity in the assay with Ehrlich [9], in the assay on Ehrlich [10] and in the assay with Ehrlich [11] were 98.1%, 79% and 60%, respectively.
`CC1=NN(c2ccccc2)C(=O)C1c1cc(-c2ccc(O)cc2)nc(N)n1` (stereo unspecified): the Activity in the assay with Rattus norvegicus [3] is 61.84%.
Regarding `Cc1c(-n2cc(C#N)c(=O)n(-c3ccccc3)c2=N)c(=O)n(-c2ccccc2)n1C`, in the assay with MCF7, the concentration for half-maximal inhibition (IC50) worked out at 54.2 µM.
Regarding `Nc1cc(=O)n(C(=O)CN2N=C(C(F)(F)F)/C(=N/Nc3ccc(Cl)cc3)C2=O)[nH]1`, the minimum inhibitory concentration (MIC) in the assay on Staphylococcus aureus turned out to be 7.3 µg/mL (≈ 17 µM); against Pseudomonas aeruginosa, 7.39 µg/mL (≈ 17.2 µM); in the assay with Escherichia coli [6] it was 12.7 µg/mL (≈ 29.5 µM); against Candida albicans, 6.18 µg/mL (≈ 14.4 µM); against Aspergillus niger, 6.8 µg/mL (≈ 15.8 µM).
Compound `Cc1c(-n2cc3c(N)nnc-3n(-c3ccccc3)/c2=N\N)c(=O)n(-c2ccccc2)n1C` came in with a 50% inhibitory concentration (IC50) with MCF7 of 45 µM.
As to `O=C1/C(=C\c2coc3ccc(Cl)cc3c2=O)C(C(F)(F)F)=NN1c1c(F)c(F)cc(F)c1F`, the MIC is 250 µg/mL (≈ 509 µM) against Staphylococcus aureus; 250 µg/mL (≈ 509 µM) against Bacillus subtilis [5]; 200 µg/mL (≈ 408 µM) against Streptococcus pyogenes; 62.5 µg/mL (≈ 127 µM) in the assay with Pseudomonas aeruginosa; 125 µg/mL (≈ 255 µM) in the assay with Escherichia coli [6]; 1000 µg/mL (≈ 2040 µM) against Candida albicans. In addition, in the assay on Aspergillus niger, the lowest concentration to inhibit growth (MIC) was 500 µg/mL (≈ 1020 µM).
Turning to `O=C1/C(=C2/CN(c3ccccc3)N=C2c2ccccc2)C(c2ccccc2)=NN1c1ccccc1`, the minimal inhibitory concentration (MIC) against Bacillus subtilis [5] amounted to 10 µg/mL (≈ 22 µM); with Escherichia coli [6], 4.08 µg/mL (≈ 8.98 µM); against Aspergillus niger, 5.1 µg/mL (≈ 11.2 µM).
On to `CC1=NN(c2nc(-c3ccccc3)cs2)C(=O)C1C(=S)Nc1ccccc1` (stereo unspecified), for which the Activity in assay [12] was 88.6%.
For `C/C(=N\c1c(C)n(C)n(-c2ccccc2)c1=O)c1ccc(O)cc1O`, the IC50 in assay [4] came to 19.1 µM.
Take `CCCC1=NN(c2c(F)c(F)cc(F)c2F)C(=O)/C1=C\c1cn(-c2ccccc2)nc1-c1ccc(Cl)cc1`: the MIC was determined as 100 µg/mL (≈ 186 µM) in the assay with Staphylococcus aureus; 100 µg/mL (≈ 186 µM) in the assay on Bacillus subtilis [5]; 100 µg/mL (≈ 186 µM) against Streptococcus pyogenes; 200 µg/mL (≈ 371 µM) against Pseudomonas aeruginosa; 62.5 µg/mL (≈ 116 µM) in the assay on Escherichia coli [6]; 1000 µg/mL (≈ 1860 µM) against Candida albicans. Further, the MIC in the assay with Aspergillus niger was greater than 1000 µg/mL.
Regarding `CC1=NN(C(=S)NN)C(=O)/C1=N/Nc1ccc(Cl)cc1`, the MIC worked out at 188 µg/mL (≈ 603 µM) against Escherichia coli [6], 15.6 µg/mL (≈ 50.2 µM) against Candida albicans and 5.8 µg/mL (≈ 18.7 µM) in the assay on Aspergillus niger.
In the case of `COc1ccc(N/N=C2\C(=O)N(CC(=O)n3[nH]c(N)cc3=O)N=C2C(F)(F)F)cc1`, the MIC against Staphylococcus aureus turned out to be 8.02 µg/mL (≈ 18.9 µM); against Pseudomonas aeruginosa it was 9.58 µg/mL (≈ 22.5 µM); against Escherichia coli [6] it was 15.3 µg/mL (≈ 35.9 µM); against Candida albicans, 9.22 µg/mL (≈ 21.7 µM); against Aspergillus niger, 5.3 µg/mL (≈ 12.5 µM).
Consider `O=C1/C(=C\c2coc3ccccc3c2=O)C(C(F)(F)F)=NN1c1c(F)c(F)cc(F)c1F`, for which the minimum inhibitory concentration (MIC) with Staphylococcus aureus amounted to 62.5 µg/mL (≈ 137 µM); against Bacillus subtilis [5] it was 62.5 µg/mL (≈ 137 µM); against Streptococcus pyogenes, 200 µg/mL (≈ 438 µM); with Pseudomonas aeruginosa, 500 µg/mL (≈ 1100 µM); against Escherichia coli [6], 500 µg/mL (≈ 1100 µM); against Candida albicans, 250 µg/mL (≈ 548 µM). Also, in the assay on Aspergillus niger, the MIC was greater than 1000 µg/mL.
On to `CC1=NNC(=O)/C1=N/Nc1sc2c(c1C(N)=O)CCCC2`, for which the figures for the Activity in the assay on Ehrlich [9], in the assay on Ehrlich [10] and in the assay on Ehrlich [11] were 96.5%, 66.6% and 38.1%, respectively.
Regarding `NC1=NNC(=O)C1C(CS(=O)(=O)Cc1ccccc1)c1ccccc1` (stereo unspecified), the minimum inhibitory concentration (MIC) stood at 25 µg/mL (≈ 69.9 µM) with Staphylococcus aureus, 25 µg/mL (≈ 69.9 µM) against Bacillus subtilis [5] and 50 µg/mL (≈ 140 µM) in the assay with Aspergillus niger.
Turning to `Nc1cc(=O)n(C(=O)CN2N=C(C(F)(F)F)/C(=N/Nc3ccc(Br)cc3)C2=O)[nH]1`, the MIC in the assay with Staphylococcus aureus was 7.96 µg/mL (≈ 16.8 µM); against Pseudomonas aeruginosa it was 10.2 µg/mL (≈ 21.6 µM); in the assay with Escherichia coli [6], 13.3 µg/mL (≈ 28 µM); with Candida albicans, 8.58 µg/mL (≈ 18.1 µM); against Aspergillus niger it was 7.52 µg/mL (≈ 15.9 µM).
